PubChem BioAssay AID1963838 (Molecular Pharmacology Branch, DTP, NCI, 2024)
Values joined by “and” are separate entries in the source; they are usually repeats but may differ in a detail not shown here. Equal values may be shown once.

Tested on: 855422-203-R-J1-PDC complex spheroid viability
Test: Anticancer human tumor 855422-203-R-J1-PDC patient-derived bladder carcinoma cell line growth inhibition [POLQ]
Conditions: for viability, T/C: stronger effect = lower value
Protocol: Multicellular complex tumor spheroid response to Polymerase (POL) inhibitors (novobiocin, ART-558, RP6685) in combination with a variety of drugs and investigational agents in selected tumor cell lines
The POL inhibitors (novobiocin, ART-558, and RP6685) were evaluated both individually and in combination with standard of care and investigational anticancer small molecules within a complex spheroid model of solid tumors. . Complex spheroids include a stromal component modeled by human endothelial cells (HUVEC) and fibroblasts modeled by human mesenchymal stem cells (MSCs). The concentration ranges selected for each drug and investigational agent were based upon clinically achievable concentrations if the clinical Cmax of the agent was known.
Compounds. The drugs and investigational agents: novobiocin (NSC847541), ART-558 (NSC835418), RP-6685 (NSC848927), peposertib (NSC802822), ceralasertib (NSC780249), elimusertib (NSC800525), camonsertib (NSC841442), AZD-1390 (NSC803789), olaparib (NSC753686), talazoparib (NSC767125), rucaparib (NSC756644), sotorasib (NSC818433), MRTX-1133 (NSC836407), SN-38 (NSC673596), topotecan (NSC609699), epotoside (NSC141540), doxorubicin (NSC123127), gemcitabine (NSC613327), 5-fluorouracil (NSC19893), paclitaxel (NSC125973), vemurafenib (NSC761431), MSA-2 (NSC828583), SN-011 (NSC837082), adavosertib (NSC754352), prexasertib (NSC758257), carboplatin (NSC241240) and oxaliplatin (NSC266046), were obtained from the National Cancer Institute (NCI) Developmental Therapeutics Program Chemical Repository (21). The FDA-approved anticancer drug set is available from the Developmental Therapeutics Program at https://dtp.cancer.gov/organization/dscb/obtaining/. […] The stock solutions were prepared in dimethyl sulfoxide (DMSO, Sigma-Aldrich, St. Louis, MO, cat. D2650), except for the platinum compounds which were prepared in saline (Quality Biological, Gaithersburg, MD, cat. 114-055-101), at 800-fold the tested concentration and stored at -70 degrees C prior to their use. All drugs and investigational agents were tested over a range starting from a high concentration at or near the clinical Cmax and decreasing in half-log increments. If the clinical Cmax for an agent had not been determined, the highest concentration tested was 10 microM, except for SN-38, which was tested at a high concentration of 1 microM.
Cell Culture. All cells were maintained in an incubator at 37 degrees C and 5% CO2 with 95% humidity. The PDC lines were cultured according to standard operating procedures established by the NCI PDMR (https://pdmr.cancer.gov). Table 3 of the manuscript, lists the cell lines along with the number of the three cell types plated to form the mct-spheroids and media for tumor cell growth. After thawing, all PDC lines, except 997537-175-T-J1-PDC and 415267-285-R-J2-PDC, were cultured in Matrigel-coated flasks prepared with a working solution of 1X Ham's F-12 nutrient mix, without supplementation (Thermo Fisher Scientific, cat. 11765054), 100 U/mL penicillin-streptomycin (Thermo Fisher Scientific, cat. 15140122), and 2.5% Matrigel (Corning Inc., Corning, NY, cat. 354248) for the first three passages. The two PDC lines 997537-175-T-J1-PDC and 415267-285-R-J2-PDC were cultured on uncoated flasks. The 857933-349-R-J2-PDC line was cultured in 6C/Colon 1B media containing advanced DMEM/F-12 (Thermo Fisher Scientific, cat. 12634028), 10 mM HEPES (Thermo Fisher Scientific, cat. 15630080), 1X GlutaMAX supplement (Thermo Fisher Scientific, cat. 35050061), 0.1 mg/mL primocin (InvivoGen, San Diego, CA, cat. ant-pm-2), 10% defined fetal bovine serum, heat inactivated (HyClone Laboratories Inc., Logan, UT, cat. SH30070.03HI), 50% L-WRN conditioned media (ATCC, cat. CRL-3276), 1.25 mM N-Acetyl-L-cysteine (Sigma-Aldrich, cat. A9165), 10 mM nicotinamide (Sigma-Aldrich, cat. N0636), 1X B-27 supplement (Thermo Fisher Scientific, cat. 17504044), 1X N-2 supplement (Thermo Fisher Scientific, cat. […]

[1] = curve of first compound, second compound 0.0316 µM
[2] = curve of first compound, second compound 0.1 µM
[3] = curve of first compound, second compound 0.316 µM
[4] = curve of first compound, second compound 1 µM
[5] = curve of first compound, second compound 3.16 µM
[6] = curve of first compound, second compound 10 µM
[7] = second compound 0.0316 µM, first compound 0.0316 µM
[8] = second compound 0.0316 µM, first compound 0.1 µM
[9] = second compound 0.0316 µM, first compound 0.316 µM
[10] = second compound 0.0316 µM, first compound 1 µM
[11] = second compound 0.0316 µM, first compound 3.16 µM
[12] = second compound 0.0316 µM, first compound 10 µM
[13] = second compound 0.1 µM, first compound 0.0316 µM
[14] = second compound 0.1 µM, first compound 0.1 µM
[15] = second compound 0.1 µM, first compound 0.316 µM
[16] = second compound 0.1 µM, first compound 1 µM
[17] = second compound 0.1 µM, first compound 3.16 µM
[18] = second compound 0.1 µM, first compound 10 µM
[19] = second compound 0.316 µM, first compound 0.0316 µM
[20] = second compound 0.316 µM, first compound 0.1 µM
[21] = second compound 0.316 µM, first compound 0.316 µM
[22] = second compound 0.316 µM, first compound 1 µM
[23] = second compound 0.316 µM, first compound 3.16 µM
[24] = second compound 0.316 µM, first compound 10 µM
[25] = second compound 1 µM, first compound 0.0316 µM
[26] = second compound 1 µM, first compound 0.1 µM
[27] = second compound 1 µM, first compound 0.316 µM
[28] = second compound 1 µM, first compound 1 µM
[29] = second compound 1 µM, first compound 3.16 µM
[30] = second compound 1 µM, first compound 10 µM
[31] = second compound 3.16 µM, first compound 0.0316 µM
[32] = second compound 3.16 µM, first compound 0.1 µM
[33] = second compound 3.16 µM, first compound 0.316 µM
[34] = second compound 3.16 µM, first compound 1 µM
[35] = second compound 3.16 µM, first compound 3.16 µM
[36] = second compound 3.16 µM, first compound 10 µM
[37] = second compound 10 µM, first compound 0.0316 µM
[38] = second compound 10 µM, first compound 0.1 µM
[39] = second compound 10 µM, first compound 0.316 µM
[40] = second compound 10 µM, first compound 1 µM
[41] = second compound 10 µM, first compound 3.16 µM
[42] = second compound 10 µM, first compound 10 µM
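Note: spheroids exposed to compounds for seven days before readout.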

CCCS(=O)(=O)Nc1ccc(F)c(C(=O)c2c[nH]c3ncc(-c4ccc(Cl)cc4)cc23)c1F + Cc1cccc(N(C)C(=O)C2C(O)CCN2c2nc(C)cc(C(F)(F)F)c2C#N)c1
IC50 [1]: 6.14 µM | IC50 [2]: 6.18 µM | IC50 [3]: 6.52 µM | IC50 [4]: 6.04 µM | IC50 [5]: 6.48 µM | IC50 [6]: 6.72 µM | viability, T/C [7]: 104% | viability, T/C [8]: 131% | viability, T/C [9]: 99.9% | viability, T/C [10]: 104% | viability, T/C [11]: 109% | viability, T/C [12]: 6.85% | viability, T/C [13]: 98% | viability, T/C [14]: 119% | viability, T/C [15]: 99% | viability, T/C [16]: 103% | viability, T/C [17]: 121% | viability, T/C [18]: 8.21% | viability, T/C [19]: 103% | viability, T/C [20]: 125% | viability, T/C [21]: 101% | viability, T/C [22]: 110% | viability, T/C [23]: 115% | viability, T/C [24]: 14.1% | viability, T/C [25]: 97% | viability, T/C [26]: 111% | viability, T/C [27]: 96% | viability, T/C [28]: 107% | viability, T/C [29]: 123% | viability, T/C [30]: 5.7% | viability, T/C [31]: 97.8% | viability, T/C [32]: 133% | viability, T/C [33]: 139% | viability, T/C [34]: 127% | viability, T/C [35]: 128% | viability, T/C [36]: 4.79% | viability, T/C [37]: 109% | viability, T/C [38]: 134% | viability, T/C [39]: 139% | viability, T/C [40]: 180% | viability, T/C [41]: 142% | viability, T/C [42]: 2.01%

CCCS(=O)(=O)Nc1ccc(F)c(C(=O)c2c[nH]c3ncc(-c4ccc(Cl)cc4)cc23)c1F
viability, T/C (compound 0.0316 µM): 106% and 96.3% and 94.9% | viability, T/C (compound 0.1 µM): 97.9% and 102% and 107% | viability, T/C (compound 0.316 µM): 117% and 97.8% and 105% | viability, T/C (compound 1 µM): 96.7% and 100% and 109% | viability, T/C (compound 3.16 µM): 113% (2×) and 108% | viability, T/C (compound 10 µM): 7.16% and 6.83% and 1.07% | IC50 (curve of compound): 6.08 µM and 5.93 µM and 5.81 µM

O=c1[nH]cc(F)c(=O)[nH]1
viability, T/C (compound 0.0316 µM): 116% and 95.4% and 99.2% | viability, T/C (compound 0.1 µM): 105% and 104% and 102% | viability, T/C (compound 0.316 µM): 61.8% and 118% and 55.4% | viability, T/C (compound 1 µM): 32.8% and 67% and 34.3% | viability, T/C (compound 3.16 µM): 29.6% and 40.2% and 26.3% | viability, T/C (compound 10 µM): 23.3% and 44.2% and 22.9% | IC50 (curve of compound): 0.507 µM and 2.2 µM and 0.405 µM

CNCc1ccc(-c2[nH]c3cc(F)cc4c3c2CCNC4=O)cc1 + Cc1cccc(N(C)C(=O)C2C(O)CCN2c2nc(C)cc(C(F)(F)F)c2C#N)c1
IC50 [1]: > 10 µM | IC50 [2]: > 10 µM | IC50 [3]: > 10 µM | IC50 [4]: > 10 µM | IC50 [5]: > 10 µM | IC50 [6]: > 10 µM | viability, T/C [7]: 115% | viability, T/C [8]: 101% | viability, T/C [9]: 99.2% | viability, T/C [10]: 104% | viability, T/C [11]: 114% | viability, T/C [12]: 108% | viability, T/C [13]: 101% | viability, T/C [14]: 101% | viability, T/C [15]: 90.5% | viability, T/C [16]: 107% | viability, T/C [17]: 111% | viability, T/C [18]: 106% | viability, T/C [19]: 107% | viability, T/C [20]: 115% | viability, T/C [21]: 112% | viability, T/C [22]: 103% | viability, T/C [23]: 113% | viability, T/C [24]: 120% | viability, T/C [25]: 101% | viability, T/C [26]: 105% | viability, T/C [27]: 101% | viability, T/C [28]: 103% | viability, T/C [29]: 114% | viability, T/C [30]: 105% | viability, T/C [31]: 112% | viability, T/C [32]: 108% | viability, T/C [33]: 118% | viability, T/C [34]: 98.8% | viability, T/C [35]: 108% | viability, T/C [36]: 111% | viability, T/C [37]: 110% | viability, T/C [38]: 95.6% | viability, T/C [39]: 100% | viability, T/C [40]: 104% | viability, T/C [41]: 116% | viability, T/C [42]: 107%
